# Assay results as given in ChEMBL document CHEMBL1201862, “PubChem BioAssay data set” (2004).
#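 How tested: cells in 96-well plates exposed to compound for 48 hours at five concentrations. The concentration for 50% growth inhibition is given as GI50.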 The source made the active and inactive calls. No stated cut-off is given here; in the data, active = GI50 up to about 1.1 µM and inactive = higher. Where a SMILES comes first, the peptide text is derived from it. [ ]: non-standard residue; d: D form. The star is where a group is joined. ξ: configuration not given here. ξPhe(4-NO2) = NC(Cc1ccc([N+](=O)[O-])cc1)C(=O)O; Boc = CC(C)(C)OC(=O)*; OBn = c1ccc(CO*)cc1
# How the values were obtained:
# Test in all cases: NCI tumour cell line growth inhibition, 48 h
# MCF7 = system: MCF7
# MDA-N = system: MDA-N
# HOP-92 = system: HOP-92
# SK-OV-3 = system: SK-OV-3
# IGROV-1 = system: IGROV-1
# SF-268 = system: SF-268
# SF-295 = system: SF-295
# HCT-116 = system: HCT-116
# RXF 393 = system: RXF 393
# NCI-H460 = system: NCI-H460
# NCI-H522 = system: NCI-H522
# UACC-257 = system: UACC-257
# NCI-H23 = system: NCI-H23
# LOX IMVI = system: LOX IMVI
# K562 = system: K562
# CAKI-1 = system: CAKI-1
# BT-549 = system: BT-549
# SNB-75 = system: SNB-75
# SNB-19 = system: SNB-19
# SK-MEL-28 = system: SK-MEL-28
Structure (SMILES),GI50 (MCF7),GI50 (MDA-N),GI50 (HOP-92),GI50 (SK-OV-3),GI50 (IGROV-1),GI50 (SF-268),GI50 (SF-295),GI50 (HCT-116),GI50 (RXF 393),GI50 (NCI-H460),GI50 (NCI-H522),GI50 (UACC-257),GI50 (NCI-H23),GI50 (LOX IMVI),GI50 (K562),GI50 (CAKI-1),GI50 (BT-549),GI50 (SNB-75),GI50 (SNB-19),GI50 (SK-MEL-28)
FC(F)(F)c1nc2ccc(SSc3ccc4nc(C(F)(F)F)[nH]c4c3)cc2[nH]1,35.7 µM (inactive),80.5 µM (inactive),> 10 µM (inactive),> 10 µM (inactive),> 10 µM (inactive),> 10 µM (inactive),4.41 µM (inactive),> 10 µM (inactive),> 10 µM (inactive),24.5 µM (inactive),49 µM (inactive),35.9 µM (inactive),47.5 µM (inactive),40.5 µM (inactive),31.9 µM (inactive),> 10 µM (inactive),92.7 µM (inactive),> 10 µM (inactive),> 10 µM (inactive),> 10 µM (inactive)
C[N+]1(C)CCOC(O)(c2ccccc2)C1 (stereo not given),> 100 µM (inactive),> 100 µM (inactive),> 100 µM (inactive),> 100 µM (inactive),> 100 µM (inactive),> 100 µM (inactive),> 100 µM (inactive),> 100 µM (inactive),> 100 µM (inactive),> 100 µM (inactive),> 100 µM (inactive),> 100 µM (inactive),> 100 µM (inactive),> 100 µM (inactive),> 100 µM (inactive),> 100 µM (inactive),> 100 µM (inactive),> 100 µM (inactive),> 100 µM (inactive),> 100 µM (inactive)
O=C1NCCN1/N=C/c1c(Cl)n(-c2ccccc2)c2ccccc12,22.1 µM (inactive),9.25 µM (inactive),23.6 µM (inactive),46.2 µM (inactive),17.2 µM (inactive),20.1 µM (inactive),29.4 µM (inactive),19.5 µM (inactive),> 10 µM (inactive),,16.1 µM (inactive),22.4 µM (inactive),18.5 µM (inactive),13.5 µM (inactive),24.5 µM (inactive),17.3 µM (inactive),15.4 µM (inactive),21.1 µM (inactive),23.1 µM (inactive),
O=C(Nc1cc2c(=O)[nH]c3ccccc3c2oc1=O)c1cnccn1,> 100 µM (inactive),> 100 µM (inactive),> 100 µM (inactive),> 100 µM (inactive),> 100 µM (inactive),,> 100 µM (inactive),> 100 µM (inactive),> 100 µM (inactive),> 100 µM (inactive),> 100 µM (inactive),> 100 µM (inactive),> 100 µM (inactive),> 100 µM (inactive),> 100 µM (inactive),> 100 µM (inactive),> 100 µM (inactive),> 100 µM (inactive),> 100 µM (inactive),> 100 µM (inactive)
CCOc1ccc(N2C(=O)NC3(c4ccccc4)N(C)C(=O)N(C)C23c2ccccc2)cc1 (stereo not given),46.2 µM (inactive),62.4 µM (inactive),> 100 µM (inactive),> 100 µM (inactive),> 100 µM (inactive),,97.3 µM (inactive),78 µM (inactive),66.4 µM (inactive),,33.9 µM (inactive),> 100 µM (inactive),> 100 µM (inactive),> 100 µM (inactive),74 µM (inactive),> 100 µM (inactive),83.9 µM (inactive),12.4 µM (inactive),> 100 µM (inactive),> 100 µM (inactive)
CN1CC2CN(Cc3ccccc3)CCN2c2cccnc21 (stereo not given),39.9 µM (inactive),38.6 µM (inactive),47.4 µM (inactive),> 100 µM (inactive),52.7 µM (inactive),54.3 µM (inactive),89.5 µM (inactive),10.6 µM (inactive),> 100 µM (inactive),39.1 µM (inactive),28.8 µM (inactive),40.8 µM (inactive),39 µM (inactive),20.9 µM (inactive),29.2 µM (inactive),93.1 µM (inactive),33.3 µM (inactive),41.3 µM (inactive),64.7 µM (inactive),
O=[N+]([O-])c1ccc2c(c1)n1c(N3CCCC3)[n+]3ccccc3c1c1c3ccccn3c(N3CCCC3)[n+]21.[O-][Cl+3]([O-])([O-])[O-].[O-][Cl+3]([O-])([O-])[O-],9.46 µM (inactive),> 100 µM (inactive),> 100 µM (inactive),,> 100 µM (inactive),17.5 µM (inactive),61.4 µM (inactive),> 100 µM (inactive),> 100 µM (inactive),> 100 µM (inactive),29 µM (inactive),> 100 µM (inactive),> 100 µM (inactive),> 100 µM (inactive),23.7 µM (inactive),> 100 µM (inactive),> 100 µM (inactive),44 µM (inactive),45 µM (inactive),> 100 µM (inactive)
Cc1ccc2c(O)cc(-c3ccc(C)s3)nc2n1,0.27 µM (active),0.0213 µM (active),5.21 µM (inactive),0.746 µM (active),0.44 µM (active),2.34 µM (inactive),0.267 µM (active),0.295 µM (active),0.656 µM (active),0.456 µM (active),0.219 µM (active),16.6 µM (inactive),0.277 µM (active),0.472 µM (active),0.423 µM (active),0.811 µM (active),0.804 µM (active),0.254 µM (active),0.644 µM (active),
CC(C)(C)OC(=O)NC(Cc1ccc([N+](=O)[O-])cc1)C(=O)NCC(=O)OCc1ccccc1 (stereo not given) (Boc-[ξPhe(4-NO2)]-Gly-OBn),28.2 µM (inactive),19.1 µM (inactive),34 µM (inactive),24.6 µM (inactive),> 100 µM (inactive),19.5 µM (inactive),20.5 µM (inactive),26.5 µM (inactive),22.2 µM (inactive),21.9 µM (inactive),20.2 µM (inactive),,20.2 µM (inactive),14.1 µM (inactive),15 µM (inactive),13.1 µM (inactive),25.7 µM (inactive),18.4 µM (inactive),55.3 µM (inactive),24 µM (inactive)
CC(=O)C1(c2ccccc2)CCN(Cn2sc3nc(C)cc(C)c3c2=O)CC1,40 µM (inactive),19.8 µM (inactive),59.4 µM (inactive),76.4 µM (inactive),> 100 µM (inactive),34.8 µM (inactive),> 100 µM (inactive),23.1 µM (inactive),20.8 µM (inactive),17.6 µM (inactive),12.4 µM (inactive),,19.1 µM (inactive),23.8 µM (inactive),26.7 µM (inactive),35.9 µM (inactive),38.8 µM (inactive),28.3 µM (inactive),> 100 µM (inactive),31.6 µM (inactive)
